According to patent US5436254A, “Carbostyril derivatives” (Otsuka Pharmaceutical Company, Ltd., priority 1989, dated 1995):

molecular target: V1 receptor (Rattus norvegicus, UniProt P30560); test: biochemical; format: binding; conditions: not given
Sequence (P30560 whole entry): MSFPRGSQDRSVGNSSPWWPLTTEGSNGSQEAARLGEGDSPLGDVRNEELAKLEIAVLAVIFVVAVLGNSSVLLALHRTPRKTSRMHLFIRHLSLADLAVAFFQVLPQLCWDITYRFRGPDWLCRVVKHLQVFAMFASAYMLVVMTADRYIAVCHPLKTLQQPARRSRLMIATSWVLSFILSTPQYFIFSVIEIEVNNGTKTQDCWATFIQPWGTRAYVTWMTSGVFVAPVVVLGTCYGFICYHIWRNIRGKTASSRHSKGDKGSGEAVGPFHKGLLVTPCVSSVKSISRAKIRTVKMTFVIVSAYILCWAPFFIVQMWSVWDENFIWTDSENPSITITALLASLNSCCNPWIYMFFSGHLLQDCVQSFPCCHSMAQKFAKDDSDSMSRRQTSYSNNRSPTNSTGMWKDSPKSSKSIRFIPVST

| Molecule | IC50 [nM] |
| --- | --- |
| O=C(c1ccccc1)c1ccc(C(=O)N2CCC(N3C(=O)CCc4ccccc43)CC2)cc1 [Example 72, 1-[1-(4-Benzoylbenzoyl)-4-piperidinyl]-3,4-dihydrocarbostyril] | 480 |
| COCCCOc1cc(OC)ccc1C(=O)N1CCC(N2C(=O)CCc3ccccc32)CC1 [Example 66, 1-{1-[2-(3-Methoxypropoxy)-4-methoxybenzoyl]-piperidinyl}-3,4-dihydrocarbostyril] | 410 |
| CC(=O)OC1CCC(C(=O)NCCCCCOc2ccc(C(=O)N3CCC(N4C(=O)CCc5ccccc54)CC3)cc2)CC1OC(C)=O (stereo not drawn) [Example 261, 1-{1-(4-[5-(3,4-Diacetoxycyclohexylcarbonyl)aminopentyloxy]benzoyl)-4-piperidinyl}-3,4-dihydrocarbostyril] | 120 |
| O=C(c1ccc(OCCCCCN2CCC[C@H]2CO)cc1)N1CCC(N2C(=O)CCc3ccccc32)CC1 [Example 238, 1-(1-(4-[5-(2-(S)-Hydroxymethyl-1-pyrrolidinyl)pentyloxy]benzoyl)-4-piperidinyl}-3,4-dihydrocarbostyril] | 33 |
| COc1ccc(C(=O)N2CCC(N3C(=O)CCc4ccccc43)CC2)c(NC(C)=O)c1 [Example 104, 1-[1-(4-Methoxy-2-acetylaminobenzoyl)-4-piperidinyl]-3,4-dihydrocarbostyril] | 1000 |
| CCN(CC)CC(O)COCCCOc1ccc(C(=O)N2CCC(N3C(=O)CCc4ccccc43)CC2)cc1 (stereo not drawn) [Example 192, 1-{1-[4-(3-(2-Hydroxy-3-diethylaminopropoxy)propoxy)benzoyl]-4-piperidinyl}-3,4-dihydrocarbostyril] | 61 |
| NC(=O)CNC(=O)CCCCCCCOc1ccc(C(=O)N2CCC(N3C(=O)CCc4ccccc43)CC2)cc1 [Example 16, 1-(1-[4-(7-Carbamoylmethylaminocarbonylheptyloxy)benzoyl]-4-piperidinyl}-3,4-dihydrocarbostyril] | 150 |
| COc1ccc(C(=O)N2CCC(N3C(=O)CCc4ccccc43)CC2)c(OCCCC(N)=O)c1 [Example 67, 1-{1-[2-(3-Carbamoylpropoxy)-4-methoxybenzoyl]-4-piperidinyl}-3,4-dihydrocarbostyril] | 470 |
| Cc1ccc(C(=O)N2CCC(N3C(=O)CCc4ccccc43)CC2)cc1C [Example 78, 1-[1-(3,4-Dimethylbenzoyl)-4-piperidinyl]-3,4-dihydrocarbostyril] | 400 |
| COc1cc(OCCCCC(=O)N2CCSCC2)ccc1C(=O)N1CCC(N2C(=O)CCc3ccccc32)CC1 [Example 293, 1-{1-[2-Methoxy-4-(4-thiomorpholinocarbonylbutyloxy)benzoyl]-4-piperidinyl}-3,4-dihydrocarbostyril] | 220 |
| CN(C)CC(O)COCCCCCOc1ccc(C(=O)N2CCC(N3C(=O)CCc4ccccc43)CC2)cc1 (stereo not drawn) [Example 191, 1-{1-[4-(5-(2-Hydroxy-3-dimethylaminopropoxy)pentyloxy)benzoyl]-4-piperidinyl}-3,4-dihydrocarbostyril] | 34 |
| CS(=O)(=O)NCCCOc1ccc(C(=O)N2CCC(N3C(=O)CCc4ccccc43)CC2)cc1 [Example 22, 1-{1-[4-(3-Methylsulfonylaminopropoxy)benzoyl]-4-piperidinyl}-3,4-dihydrocarbostyril] | 340 |
| COc1ccc(C(=O)N2CCC(N3C(=O)CCc4ccccc43)CC2)c(OCCO)c1 [Example 68, 1-{1-[2-(2-Hydroxyethoxy)-4-methoxybenzoyl]-4-piperidinyl}-3,4-dihydrocarbostyril] | 360 |
| CCOc1ccc(C(=O)N2CCC(N3C(=O)C(C(=O)O)Cc4ccccc43)CC2)c(OC)c1 (stereo not drawn) [Example 152, 1-[1-(2-Methoxy-4-ethoxybenzoyl)-4-piperidinyl]-3-carboxy-3,4-dihydrocarbostyril] | 1600 |
| COC(=O)N1CCN(CCCCOc2ccc(C(=O)N3CCC(N4C(=O)CCc5ccccc54)CC3)cc2)CC1 [Example 160, 1-{1-[4-[4-(4-Methoxycarbonyl-1-piperazinyl)butoxy]benzoyl]-4-piperidinyl}-3,4-dihydrocarbostyril] | 220 |
| CCCNc1cc(OC)ccc1C(=O)N1CCC(N2C(=O)CCc3ccccc32)CC1 [Example 57, 1-[1-(2-Propylamino-4-methoxybenzoyl)-4-piperidinyl]-3,4-dihydrocarbostyril] | 270 |
| CC(=O)OCCN(CCCCCOc1ccc(C(=O)N2CCC(N3C(=O)CCc4ccccc43)CC2)cc1)CCOC(C)=O [Example 249, 1-{1-(4-[5-(N,N-Di(2-acetoxyethyl)amino)pentyloxy]benzoyl)-4-piperidinyl}-3,4-dihydrocarbostyril] | 45 |
| CCSc1ccc(C(=O)N2CCC(N3C(=O)CCc4ccccc43)CC2)cc1 [Example 74, 1-[1-(4-Ethylthiobenzoyl)-4-piperidinyl]-3,4-dihydrocarbostyril] | 180 |

| Molecule | IC50 [nM] |
| --- | --- |
| C=CC[N+](C)([O-])CCCCCOc1ccc(C(=O)N2CCC(N3C(=O)CCc4ccccc43)CC2)cc1 (stereo not drawn) [Example 246, N-{5-[4-(4-(3,4-Dihydrocarbostyril-1-yl)-1-piperidinylcarbonyl)phenoxy]pentyl}, N-methyl, N-allylamine oxide] | 290 |
| NCC(O)CCCCOc1ccc(C(=O)N2CCC(N3C(=O)CCc4ccccc43)CC2)cc1 (stereo not drawn) [Example 171, 1-{1-[4-(5-Hydroxy-6-aminohexyloxy)benzoyl]-4-piperidinyl}-3,4-dihydrocarbostyril] | 240 |
| COC(=O)[C@H](C)NC(=O)CCCOc1ccc(C(=O)N2CCC(N3C(=O)CCc4ccccc43)CC2)cc1 [Example 11, Methyl N-[4-{4-[4-(1,2,3,4-tetrahydro-2-oxo-1-quinolyl)-1-piperidinylcarbonyl]phenoxy}]butanoyl-L-alanate] | 300 |
| CCN(CC)CC(O)CCCCOc1ccc(C(=O)N2CCC(N3C(=O)CCc4c(F)cc(F)cc43)CC2)c(OC)c1 (stereo not drawn) [Example 201, 5,7-Difluoro-1-(1-[2-methoxy-4-(5-hydroxy-6-diethylaminohexyloxy)benzoyl]-4-piperidinyl}-3,4-dihydrocarbostyril] | 8 |
| O=C(CN1CCOCC1)NCCCCCOc1ccc(C(=O)N2CCC(N3C(=O)CCc4ccccc43)CC2)cc1 [Example 253, 1-{1-(4-[5-(2-Morpholinoacetylamino)pentyloxy]benzoyl)-4-piperidinyl}-3,4-dihydrocarbostyril] | 180 |
| O=C(c1ccc(OCCCCCN2CCCC(O)C2)cc1)N1CCC(N2C(=O)CCc3ccccc32)CC1 (stereo not drawn) [Example 240, 1-{1-(4-[5-(3-Hydroxy-1-piperidinyl)pentyloxy]benzoyl)-4-piperidinyl}-3,4-dihydrocarbostyril] | 48 |
| CCOc1ccc(C(=O)N2CCC(N3C(=O)CCc4c(F)cc(F)cc43)CC2)c(OC)c1 [Example 139, 5,7-Difluoro-1-[1-(2-methoxy-4-ethoxybenzoyl)-4-piperidinyl]-3,4-dihydrocarbostyril] | 51 |
| O=C(c1ccc(OCCCC(O)CN2CCCCC2)cc1)N1CCC(N2C(=O)CCc3ccccc32)CC1 (stereo not drawn) [Example 188] | 68 |
| CNC(=O)CCCOc1ccc(C(=O)N2CCC(N3C(=O)CCc4ccccc43)CC2)cc1 [Example 121, 1-{1-[4-(3-Methylaminocarbonylpropoxy)benzoyl]-4-piperidinyl}-3,4-dihydrocarbostyril] | 460 |
| CN(CCc1ccccc1)CC(O)CCCCOc1ccc(C(=O)N2CCC(N3C(=O)CCc4ccccc43)CC2)cc1 (stereo not drawn) [Example 203, 1-{1-[4-(5-Hydroxy-6-[N-(2-phenylethyl)-N-methylamino]hexyloxy)benzoyl]-4-piperidinyl)-3,4-dihydrocarbostyril] | 49 |
| O=C(c1ccc2c(c1)OCO2)N1CCC(N2C(=O)CCc3ccccc32)CC1 [Example 113, 1-[1-(3,4-Methylenedioxybenzoyl)-4-piperidinyl]-3,4-dihydrocarbostyril] | 980 |
| CC(C)[C@@H](N)C(=O)NCCCOc1ccc(C(=O)N2CCC(N3C(=O)CCc4ccccc43)CC2)cc1 [Example 225, 1-[1-{4-(3-(R)-Valylaminopropoxy]benzoyl]-4-piperidinyl]-3,4-dihydrocarbostyril] | 99 |
| CNc1ccc(C(=O)N2CCC(N3C(=O)CCc4ccccc43)CC2)c(OC)c1 [Example 48, 1-[1-(2-Methoxy-4-methylaminobenzoyl)-4-piperidinyl]-3,4-dihydrocarbostyril] | 400 |
| CS(=O)(=O)NCCCCCCOc1ccc(C(=O)N2CCC(N3C(=O)CCc4ccccc43)CC2)cc1 [Example 142, 1-{1-[4-(6-Methylsulfonylaminohexyloxy)benzoyl]-4-piperidinyl}-3,4-dihydrocarbostyril] | 100 |
| O=C(c1ccc(OCCCCCN2CCN(c3ncccn3)CC2)cc1)N1CCC(N2C(=O)CCc3ccccc32)CC1 [Example 233, 1-{1-(4-[5-(4-[2-Pyrimidyl]-1-piperazinyl)pentyloxy]benzoyl)-4-piperidinyl}-3,4-dihydrocarbostyril] | 210 |
| CS(=O)(=O)Oc1ccc(C(=O)N2CCC(N3C(=O)CCc4ccccc43)CC2)cc1 [Example 100, 1-[1-(4-Methylsulfonyloxybenzoyl)-4-piperidinyl]-3,4-dihydrocarbostyril] | 900 |
| CCNc1cc(OC)ccc1C(=O)N1CCC(N2C(=O)CCc3ccccc32)CC1 [Example 56, 1-[1-(2-Ethylamino-4-methoxybenzoyl)-4-piperidinyl]-3,4-dihydrocarbostyril] | 330 |
| O=C(CN1CCCC1)NCCCCCOc1ccc(C(=O)N2CCC(N3C(=O)CCc4ccccc43)CC2)cc1 [Example 252, 1-{1-(4-[5-(2-(1-Pyrrolidinyl)acetylamino)pentyloxy]benzoyl)-4-piperidinyl}-3,4-dihydrocarbostyril] | 86 |

same assay, conditions: [H]3-Arg-vasopressin 2×10^-10 M, rat liver plasma membrane, 37° C., 10 minutes, pH 8.0; read-out: IC50

| Molecule | IC50 [nM] |
| --- | --- |
| COc1ccc(N(Cc2ccccc2)C(=O)c2ccc(N3C(=O)CCc4ccccc43)cc2)cc1 [Example 85] | 3000 |
| 1-{1-[4-[4-(Benzimidazol-1-yl)thiobutoxy]benzoyl]-4-piperidinyl}-3,4-dihydrocarbostyril [Example 164] | 780 |
| 1-{1-[4-(6-(1-Methyl-5-oxo-3-morpholino)hexyloxy)benzoyl]-4-piperidinyl}-3,4-dihydrocarbostyril [Example 215] | 170 |
